Columns and labels:
Test in all cases: relative viability (nuclei count vs DMSO), 5 days (fraction); higher = more cells survive
ABC-1 = system: ABC-1
In short: (§1)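 For relative viability, nuclei counts in treated wells were divided by those in vehicle wells. Lung cancer cell lines had been pin-tool dosed in 1536-well plates the day after seeding and cultured for 5 days, then fixed and stained in one step (final 0.05% Triton X-100, 1% formaldehyde, 1 ug/ml Hoechst) and imaged at 4×. Doses were one drug alone or a fixed anchor-drug dose plus five library-drug doses (not always all listed) in √10 steps, and values are duplicate-plate medians.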

COR-L23 = system: COR-L23
In short: as §1

ChaGo-K-1 = system: ChaGo-K-1
In short: as §1

EPLC-272H = system: EPLC-272H
In short: as §1

HCC-15 = system: HCC-15
In short: as §1

HCC-366 = system: HCC-366
In short: as §1

HCC-827 = system: HCC-827
In short: as §1

LCLC-103H = system: LCLC-103H
In short: as §1

NCI-H1355 = system: NCI-H1355
In short: as §1

NCI-H1734 = system: NCI-H1734
In short: as §1

NCI-H1793 = system: NCI-H1793
In short: as §1

NCI-H1944 = system: NCI-H1944
In short: as §1

NCI-H2009 = system: NCI-H2009
In short: as §1

NCI-H2023 = system: NCI-H2023
In short: as §1

NCI-H2085 = system: NCI-H2085
In short: as §1

NCI-H2228 = system: NCI-H2228
In short: as §1

NCI-H2347 = system: NCI-H2347
In short: as §1

NCI-H2405 = system: NCI-H2405
In short: as §1

NCI-H3122 = system: NCI-H3122
In short: as §1

PC-14 = system: PC-14
In short: as §1

SW 1573 = system: SW 1573
In short: as §1

Cc1cn(-c2cc(NC(=O)c3ccc(C)c(Nc4nccc(-c5cccnc5)n4)c3)cc(C(F)(F)F)c2)cn1 [Nilotinib] + Cc1nc(Nc2ncc(C(=O)Nc3c(C)cccc3Cl)s2)cc(N2CCN(CCO)CC2)n1 [Dasatinib] (partner 0.075 µM)
relative viability (ABC-1; first compound 0.001 µM): 0.557 | relative viability (ABC-1; first compound 0.003162 µM): 0.637 | relative viability (ABC-1; first compound 0.01 µM): 0.643 | relative viability (ABC-1; first compound 0.03162 µM): 0.554 | relative viability (ABC-1; first compound 0.1 µM): 0.24 | relative viability (COR-L23; first compound 0.001 µM): 0.482 | relative viability (COR-L23; first compound 0.003162 µM): 0.501 | relative viability (COR-L23; first compound 0.01 µM): 0.511 | relative viability (COR-L23; first compound 0.03162 µM): 0.265 | relative viability (COR-L23; first compound 0.1 µM): 0.407 | relative viability (ChaGo-K-1; first compound 0.001 µM): 0.521 | relative viability (ChaGo-K-1; first compound 0.003162 µM): 0.598 | relative viability (ChaGo-K-1; first compound 0.01 µM): 0.634 | relative viability (ChaGo-K-1; first compound 0.03162 µM): 0.372 | relative viability (ChaGo-K-1; first compound 0.1 µM): 0.331 | relative viability (EPLC-272H; first compound 0.001 µM): 0.303 | relative viability (EPLC-272H; first compound 0.003162 µM): 0.343 | relative viability (EPLC-272H; first compound 0.01 µM): 0.364 | relative viability (EPLC-272H; first compound 0.03162 µM): 0.226 | relative viability (EPLC-272H; first compound 0.1 µM): 0.107 | relative viability (HCC-15; first compound 0.001 µM): 0.607 | relative viability (HCC-15; first compound 0.003162 µM): 0.689 | relative viability (HCC-15; first compound 0.01 µM): 0.665 | relative viability (HCC-15; first compound 0.03162 µM): 0.456 | relative viability (HCC-15; first compound 0.1 µM): 0.433 | relative viability (HCC-366; first compound 0.001 µM): 0.614 | relative viability (HCC-366; first compound 0.003162 µM): 0.938 | relative viability (HCC-366; first compound 0.01 µM): 0.958 | relative viability (HCC-366; first compound 0.03162 µM): 0.4 | relative viability (HCC-366; first compound 0.1 µM): 0.181 | relative viability (HCC-827; first compound 0.001 µM): 0.301 | relative viability (HCC-827; first compound 0.003162 µM): 0.308 | relative viability (HCC-827; first compound 0.01 µM): 0.329 | relative viability (HCC-827; first compound 0.03162 µM): 0.283 | relative viability (HCC-827; first compound 0.1 µM): 0.284 | relative viability (LCLC-103H; first compound 0.001 µM): 0.414 | relative viability (LCLC-103H; first compound 0.003162 µM): 0.414 | relative viability (LCLC-103H; first compound 0.01 µM): 0.51 | relative viability (LCLC-103H; first compound 0.03162 µM): 0.338 | relative viability (LCLC-103H; first compound 0.1 µM): 0.434 | relative viability (NCI-H1355; first compound 0.001 µM): 0.653 | relative viability (NCI-H1355; first compound 0.003162 µM): 0.751 | relative viability (NCI-H1355; first compound 0.01 µM): 0.556 | relative viability (NCI-H1355; first compound 0.03162 µM): 0.46 | relative viability (NCI-H1355; first compound 0.1 µM): 0.333 | relative viability (NCI-H1734; first compound 0.001 µM): 0.355 | relative viability (NCI-H1734; first compound 0.003162 µM): 0.477 | relative viability (NCI-H1734; first compound 0.01 µM): 0.506 | relative viability (NCI-H1734; first compound 0.03162 µM): 0.345 | relative viability (NCI-H1734; first compound 0.1 µM): 0.304 | relative viability (NCI-H1793; first compound 0.001 µM): 0.303 | relative viability (NCI-H1793; first compound 0.003162 µM): 0.407 | relative viability (NCI-H1793; first compound 0.01 µM): 0.459 | relative viability (NCI-H1793; first compound 0.03162 µM): 0.283 | relative viability (NCI-H1793; first compound 0.1 µM): 0.194 | relative viability (NCI-H1944; first compound 0.001 µM): 0.228 | relative viability (NCI-H1944; first compound 0.003162 µM): 0.206 | relative viability (NCI-H1944; first compound 0.01 µM): 0.217 | relative viability (NCI-H1944; first compound 0.03162 µM): 0.241 | relative viability (NCI-H2009; first compound 0.001 µM): 0.278 | relative viability (NCI-H2009; first compound 0.003162 µM): 0.258 | relative viability (NCI-H2009; first compound 0.01 µM): 0.261 | relative viability (NCI-H2009; first compound 0.03162 µM): 0.212 | relative viability (NCI-H2009; first compound 0.1 µM): 0.199 | relative viability (NCI-H2023; first compound 0.001 µM): 0.471 | relative viability (NCI-H2023; first compound 0.003162 µM): 0.569 | relative viability (NCI-H2023; first compound 0.01 µM): 0.828 | relative viability (NCI-H2023; first compound 0.03162 µM): 0.418 | relative viability (NCI-H2023; first compound 0.1 µM): 0.405 | relative viability (NCI-H2085; first compound 0.001 µM): 0.28 | relative viability (NCI-H2085; first compound 0.003162 µM): 0.198 | relative viability (NCI-H2085; first compound 0.01 µM): 0.179 | relative viability (NCI-H2085; first compound 0.03162 µM): 0.231 | relative viability (NCI-H2085; first compound 0.1 µM): 0.248 | relative viability (NCI-H2228; first compound 0.003162 µM): 0.622 | relative viability (NCI-H2228; first compound 0.01 µM): 0.628 | relative viability (NCI-H2228; first compound 0.03162 µM): 0.424 | relative viability (NCI-H2228; first compound 0.1 µM): 0.159 | relative viability (NCI-H2347; first compound 0.001 µM): 0.302 | relative viability (NCI-H2347; first compound 0.003162 µM): 0.344 | relative viability (NCI-H2347; first compound 0.01 µM): 0.344 | relative viability (NCI-H2347; first compound 0.03162 µM): 0.267 | relative viability (NCI-H2347; first compound 0.1 µM): 0.264 | relative viability (NCI-H2405; first compound 0.001 µM): 0.219 | relative viability (NCI-H2405; first compound 0.003162 µM): 0.205 | relative viability (NCI-H2405; first compound 0.01 µM): 0.214 | relative viability (NCI-H2405; first compound 0.03162 µM): 0.221 | relative viability (NCI-H2405; first compound 0.1 µM): 0.207 | relative viability (NCI-H3122; first compound 0.001 µM): 0.719 | relative viability (NCI-H3122; first compound 0.003162 µM): 0.91 | relative viability (NCI-H3122; first compound 0.01 µM): 0.982 | relative viability (NCI-H3122; first compound 0.03162 µM): 0.267 | relative viability (NCI-H3122; first compound 0.1 µM): 0.129 | relative viability (PC-14; first compound 0.001 µM): 0.226 | relative viability (PC-14; first compound 0.003162 µM): 0.254 | relative viability (PC-14; first compound 0.01 µM): 0.198 | relative viability (PC-14; first compound 0.03162 µM): 0.16 | relative viability (PC-14; first compound 0.1 µM): 0.0622 | relative viability (SW 1573; first compound 0.001 µM): 0.398 | relative viability (SW 1573; first compound 0.003162 µM): 0.455 | relative viability (SW 1573; first compound 0.01 µM): 0.749 | relative viability (SW 1573; first compound 0.03162 µM): 0.234 | relative viability (SW 1573; first compound 0.1 µM): 0.261
